From patent publication US8853213B2, “Bicyclic compound for modulating G protein-coupled receptors” (Hanmi Pharm. Co., Ltd, priority 2011, dated 2014) come the findings set out here.

Broadly, the pEC50 is the negative decadic logarithm of the EC50, by convention in mol/L.

The structures appear in SMILES notation. pEC50: −log10 of the molar value. Some results are limits rather than exact numbers.

In the assay the target is T1, GPR119 (Homo sapiens, UniProt Q8TDV5).
T1 construct: host or cells: CHO-K1 (CRE-bla reporter, doxycycline-induced)
T1 sequence (Q8TDV5 1-335): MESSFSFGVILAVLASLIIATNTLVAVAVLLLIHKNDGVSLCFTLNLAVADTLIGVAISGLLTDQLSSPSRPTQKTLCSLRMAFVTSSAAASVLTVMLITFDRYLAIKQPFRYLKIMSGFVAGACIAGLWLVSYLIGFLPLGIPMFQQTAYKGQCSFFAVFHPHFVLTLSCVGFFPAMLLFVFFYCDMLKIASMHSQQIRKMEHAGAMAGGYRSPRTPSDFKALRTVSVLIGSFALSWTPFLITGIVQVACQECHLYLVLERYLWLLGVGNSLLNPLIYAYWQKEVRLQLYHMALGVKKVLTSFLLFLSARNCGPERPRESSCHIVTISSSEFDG
Kind of assay: Controlling Effect of GPR119 in CRE-bla CHO-K1 Cells (EC50). The class given is cell-based. The following applies: GPR119 CRE-bla CHO-K1 cell line, 5 hr incubation with compound, β-lactamase LiveBLAzer-FRET B/G readout; read-out: controlling effect against GPR119 in CRE-bla CHO-K1 cell line (EC50). The method, boiled down: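 CHO-K1 cells carrying GPR119 and a CRE-β-lactamase reporter, induced with doxycycline for 16-20 h at 37° C, then exposed to compounds in 10-fold dilutions for 5 h. CCF4-AM FRET substrate added for 2 h at room temperature; blue/green fluorescence (409 ex, […]) read and EC50 derived.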
For the compound `CCCc1cnc(N2CCC(Oc3ncnc4c(-c5ccc(S(C)(=O)=O)cc5F)csc34)CC2)nc1` [Example 83, 7-(2-fluoro-4-methanesulfonyl-phenyl)-4-[1-(5-propyl-pyrimidin-2-yl)-piperidin-4-yloxy]-thieno[3,2-d]pyrimidine], the pEC50 is over 7.00. Regarding `CS(=O)(=O)c1ccc(-c2csc3c(OC4CCN(c5ncc(C6CC6)cn5)CC4)ncnc23)c(F)c1` [Example 84, 7-(2-fluoro-4-methanesulfonyl-phenyl)-4-[1-(5-cyclopropyl-pyrimidin-2-yl)-piperidin-4-yloxy]-thieno[3,2-d]pyrimidine], the pEC50 was over 7.00. For `CS(=O)(=O)c1ccc(-c2csc3c(OC4CCN(c5ncccn5)CC4)ncnc23)c(F)c1` [Example 85, 7-(2-fluoro-4-methanesulfonyl-phenyl)-4-(1-pyrimidin-2-yl-piperidin-4-yloxy)-thieno[3,2-d]pyrimidine] the value was over 7.00; for `CC(C)c1ccc(-c2cnc(N3CCC(Oc4ncnc5c(-c6ccc(S(C)(=O)=O)cc6F)csc45)CC3)nc2)cc1` [Example 86, 7-(2-fluoro-4-methanesulfonyl-phenyl)-4-{1-[5-(4-isopropylphenyl)-pyrimidin-2-yl)-piperidin-4-yloxy]-thieno[3,2-d]pyrimidine], over 7.00; for `CC(=O)N1CCC(Oc2ncnc3c(-c4ccc(S(C)(=O)=O)cc4F)csc23)CC1` [Example 87, 1-(4-(7-(2-fluoro-4-methanesulfonyl-phenyl)thieno[3,2-d]pyrimidin-4-yloxy)piperidin-1-yl)ethanone], under 6.00. On to `CC(C)(C)C(=O)N1CCC(Oc2ncnc3c(-c4ccc(S(C)(=O)=O)cc4F)csc23)CC1` [Example 88, 1-(4-(7-(2-fluoro-4-methanesulfonyl-phenyl)thieno[3,2-d]pyrimidin-4-yloxy)piperidin-1-yl)-2,2-dimethylpropan-1-one], for which the pEC50 was over 7.00. For the compound `CS(=O)(=O)c1ccc(-c2csc3c(OC4CCN(C(=O)c5ccccc5)CC4)ncnc23)c(F)c1` [Example 89, {4-[7-(2-fluoro-4-methanesulfonyl-phenyl)-thieno[3,2-d]pyrimidin-4-yloxy]-piperidin-1-yl}phenyl-methanone], the pEC50 is over 7.00.

On to `CS(=O)(=O)c1ccc(-c2csc3c(OC4CCN(C(=O)c5cccnc5)CC4)ncnc23)c(F)c1` [Example 90], for which the pEC50 was under 6.00. Turning to `CS(=O)(=O)c1ccc(-c2csc3c(OC4CCN(Cc5ccccc5)CC4)ncnc23)c(F)c1` [Example 91, 4-(1-benzylpiperidin-4-yloxy]-7-(2-fluoro-4-methanesulfonyl-phenyl)thieno[3,2-d]pyrimidine], the pEC50 is over 7.00. Next, `CC(C)c1csc(N2CCC(Oc3ncnc4c(-c5ccc(S(C)(=O)=O)cc5F)csc34)CC2)n1` [Example 93, 7-(2-fluoro-4-methanesulfonyl-phenyl)-4-[1-(4-isopropyl-thiazo-2-yl)piperidin-4-yloxy]-thieno[3,2-d]pyrimidine]: under 6.00. In the case of `CC(C)n1nnc(N2CCC(Oc3ncnc4c(-c5ccc(S(C)(=O)=O)cc5F)csc34)CC2)n1` [Example 94, 7-(2-fluoro-4-methanesulfonyl-phenyl)-4-(1-(2-isopropyl-2H-tetrazol-5-yl)piperidin-4-yloxy)thieno[3,2-d]pyrimidine], the pEC50 is over 7.00.

As for `CC(C)c1nc(N2CCC(Oc3ncnc4c(-c5ccc(S(C)(=O)=O)cc5F)csc34)CC2)no1` [Example 95, 7-(2-fluoro-4-methanesulfonyl-phenyl)-4[1-(5-isopropyl-[1,2,4]oxadiazol-3-yl)-piperidin-4-yloxy]-thieno[3,2d]pyrimidine], the pEC50 is over 7.00. Regarding `COc1ccc(-c2csc3c(OC4CCN(c5nc(C(C)C)no5)CC4)ncnc23)c(Cl)c1` [Example 96, 5-(4-(7-(2-chloro-4-methoxyphenyl)thieno[3,2-d]pyrimidin-4-yloxy)piperidin-1-yl)-3-isopropyl-1,2,4-oxadiazole], the negative-log EC50 (pEC50) is over 7.00.

In the case of `CC(C)c1noc(N2CCC(Oc3ncnc4c(-c5ccc(F)c(F)c5F)csc34)CC2)n1` [Example 97, 4-[1-(3-isopropyl-[1,2,4]oxadiazol-5-yl)-piperidin-4-yloxy]-7-(2,3,4-trifluoro-phenyl)-thieno[3,2-d]pyrimidine], the pEC50 was under 6.00. For the compound `COc1ccc(-c2csc3c(OC4CCN(c5nc(C(C)C)no5)CC4)ncnc23)cc1F` [Example 98, 7-(3-fluoro-4-methoxy-phenyl)-4-[1-(3-isopropyl-[1,2,4]oxadiazol-5-yl)-piperidin-4-yloxy]-thieno[3,2-d]pyrimidine], the pEC50 was under 6.00. Next, `CC(C)c1noc(N2CCC(Oc3ncnc4c(-c5ccc(OC(F)(F)F)cc5)csc34)CC2)n1` [Example 99, 4-[1-(3-isopropyl-[1,2,4]oxadiazol-5-yl)-piperidin-4-yloxy]-7-(4-trifluoromethoxy-phenyl)-thieno[3,2-d]pyrimidine]: 6.00 to 7.00; `CC(C)c1noc(N2CCC(Oc3ncnc4c(-c5ccc(SC(F)(F)F)cc5)csc34)CC2)n1` [Example 100, 4-[1-(3-isopropyl-[1,2,4]oxadiazol-5-yl)-piperidin-4-yloxy]-7-(4-trifluoromethylsulfanyl-phenyl)-thieno[3,2-d]pyrimidine]: under 6.00; `CC(C)c1noc(N2CCC(Oc3ncnc4c(-c5ccc(S(=O)(=O)C(F)(F)F)cc5F)csc34)CC2)n1` [Example 101, 7-(2-fluoro-4-trifluoro(methanesulfonyl)phenyl)-4-[1-(3-isopropyl-[1,2,4]oxadiazol-5-yl)-piperidin-4-yloxy]-thieno[3,2-d]pyrimidine]: under 6.00. As to `COC(=O)c1ccc(-c2csc3c(OC4CCN(c5nc(C(C)C)no5)CC4)ncnc23)cc1` [Example 102, 4-{4-[1-(3-isopropyl-[1,2,4]oxadiazol-5-yl)-piperidin-4-yloxy]-thieno[3,2-d]pyrimidin-7-yl}-benzoic acid methylester], the negative logarithm of the EC50 (pEC50) is 6.00 to 7.00. For `CC(=O)c1ccc(-c2csc3c(OC4CCN(c5nc(C(C)C)no5)CC4)ncnc23)cc1` [Example 103, 1-(4-{4-[1-(3-isopropyl-[1,2,4]oxadiazol-5-yl)-piperidin-4-yloxy]-thieno[3,2-d]pyrimidin-7-yl}-phenyl)-ethanone], the pEC50 was over 7.00.

`CC(C)c1noc(N2CCC(Oc3ncnc4c(-c5ccc(S(=O)(=O)C6CC6)cc5)csc34)CC2)n1` [Example 104, 7-(4-cyclopropylsulfonyl-phenyl)-4-[1-(3-isopropyl-[1,2,4]oxadiazol-5-yl)-piperidin-4-yloxy]-thieno[3,2-d]pyrimidine]: the negative-log EC50 (pEC50) is over 7.00.

In the case of `CC(C)c1noc(N2CCC(Oc3ncnc4c(-c5ccc(S(=O)(=O)C(C)C)cc5)csc34)CC2)n1` [Example 105, 4-[1-(3-isopropyl-[1,2,4]oxadiazol-5-yl)-piperidin-4-yloxy]-7-(4-isopropylsulfonyl-phenyl)-thieno[3,2-d]pyrimidine], the pEC50 was over 7.00. In the case of `CCCS(=O)(=O)c1ccc(-c2csc3c(OC4CCN(c5nc(C(C)C)no5)CC4)ncnc23)cc1` [Example 106, 4-[1-(3-isopropyl-[1,2,4]oxadiazol-5-yl)-piperidin-4-yloxy]-7-(4-propylsulfonyl-phenyl)-thieno[3,2-d]pyrimidine], the pEC50 is over 7.00.

`CCCS(=O)(=O)c1ccc(-c2csc3c(OC4CCN(c5nc(C(C)C)no5)CC4)ncnc23)c(F)c1` [Example 107, 7-(2-fluoro-(4-propylsulfonyl)-phenyl)-4-[1-(3-isopropyl-[1,2,4]oxadiazol-5-yl)-piperidin-4-yloxy]-thieno[3,2-d]pyrimidine]: the pEC50 was over 7.00.

`CC(C)c1noc(N2CCC(Oc3ncnc4c(-c5ccc(S(=O)(=O)C6CCCC6)cc5)csc34)CC2)n1` [Example 108, 7-(4-cyclopentylsulfonyl-phenyl)-4-[1-(3-isopropyl-[1,2,4]oxadiazol-5-yl)-piperidin-4-yloxy]-thieno[3,2-d]pyrimidine]: the negative-log EC50 (pEC50) is over 7.00. For `CC(C)(C)OC(=O)N1CCC(Nc2ncnc3c(-c4ccc(S(C)(=O)=O)cc4)csc23)CC1` [Example 109, tert-butyl 4-(7-(4-methanesulfonyl-phenyl)thieno[3,2-d]pyrimidin-4-ylamino)piperidin-1-carboxylate], the pEC50 was 6.00 to 7.00.

In the case of `CS(=O)(=O)c1ccc(-c2csc3c(NC4CCNCC4)ncnc23)cc1` [Example 110, 7-(4-methanesulfonyl-phenyl)-N-(piperidin-4-yl)thieno[3,2-d]pyrimidin-4-amine], the pEC50 was under 6.00. As to `CCc1cnc(N2CCC(Nc3ncnc4c(-c5ccc(S(C)(=O)=O)cc5)csc34)CC2)nc1` [Example 111, N-(1-(5-ethylpyrimidin-2-yl)piperidin-4-yl)-7-(4-methanesulfonyl-phenyl)thieno[3,2-d]pyrimidin-4-amine], the pEC50 was under 6.00.

Take `CN(c1ncnc2c(-c3ccc(S(C)(=O)=O)cc3)csc12)C1CCN(C(=O)OC(C)(C)C)CC1` [Example 112, tert-butyl 4-(methyl(7-(4-methanesulfonyl-phenyl)thieno[3,2-d]pyrimidin-4-yl)amino)piperidin-1-carboxylate]: the pEC50 was over 7.00. Regarding `CCc1cnc(N2CCC(N(C)c3ncnc4c(-c5ccc(S(C)(=O)=O)cc5)csc34)CC2)nc1` [Example 114, [1-(5-ethylpyrimidin-2-yl)-piperidin-4-yl]-[7-(4-methanesulfonyl-phenyl)-thieno[3,2-d]pyrimidin-4-yl]-methylamine], the pEC50 was under 6.00.
